Measured values as given in US12077503B2, “Substituted cyclic amides and their use as herbicides” (FMC CORPORATION, priority 2015, dated 2024).

Assays:
Test in all cases: Test C preemergence
Assay type in all cases: in vivo
[1] = system: barnyardgrass (Echinochloa crus-galli); conditions: for Plant response rating, Barnyardgrass: scale 0 to 100, 0 no effect, 100 complete control
Method in brief: (§1)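 Herbicidal effect, applied preemergence to sown seeds or postemergence to 1- to 4-leaf plants, was scored visually 13 to 15 d after application, 0 to 100 versus controls.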

[2] = system: soybean (Glycine max); conditions: for Plant response rating, Soybean: scale 0 to 100, 0 no effect, 100 complete control
Method in brief: as §1

[3] = system: corn (Zea mays); conditions: for Plant response rating, Corn: scale 0 to 100, 0 no effect, 100 complete control
Method in brief: as §1

[4] = system: velvetleaf (Abutilon theophrasti); conditions: for Plant response rating, Velvetleaf: scale 0 to 100, 0 no effect, 100 complete control
Method in brief: as §1

[5] = system: ragweed (common ragweed, Ambrosia elatior); conditions: for Plant response rating, Ragweed: scale 0 to 100, 0 no effect, 100 complete control
Method in brief: as §1

[6] = system: crabgrass, large (large crabgrass, Digitaria sanguinalis); conditions: for Plant response rating, Crabgrass, Large: scale 0 to 100, 0 no effect, 100 complete control
Method in brief: as §1

[7] = system: blackgrass (Alopecurus myosuroides); conditions: for Plant response rating, Blackgrass: scale 0 to 100, 0 no effect, 100 complete control
Method in brief: as §1

[8] = system: pigweed (Amaranthus retroflexus); conditions: for Plant response rating, Pigweed: scale 0 to 100, 0 no effect, 100 complete control
Method in brief: as §1

[9] = system: oilseed rape (Brassica napus); conditions: for Plant response rating, Oilseed Rape: scale 0 to 100, 0 no effect, 100 complete control
Method in brief: as §1

[10] = system: Galium (catchweed bedstraw, Galium aparine); conditions: for Plant response rating, Galium: scale 0 to 100, 0 no effect, 100 complete control
Method in brief: as §1

[11] = system: ryegrass, Italian (Italian ryegrass, Lolium multiflorum); conditions: for Plant response rating, Ryegrass, Italian: scale 0 to 100, 0 no effect, 100 complete control
Method in brief: as §1

[12] = system: lambsquarters (Chenopodium album); conditions: for Plant response rating, Lambsquarters: scale 0 to 100, 0 no effect, 100 complete control
Method in brief: as §1

[13] = system: nutsedge, yellow (yellow nutsedge, Cyperus esculentus); conditions: for Plant response rating, Nutsedge, Yellow: scale 0 to 100, 0 no effect, 100 complete control
Method in brief: as §1

[14] = system: foxtail, giant (giant foxtail, Setaria faberii); conditions: for Plant response rating, Foxtail, Giant: scale 0 to 100, 0 no effect, 100 complete control
Method in brief: as §1

[15] = system: waterhemp (common waterhemp, Amaranthus rudis); conditions: for Plant response rating, Waterhemp: scale 0 to 100, 0 no effect, 100 complete control
Method in brief: as §1

[16] = system: morningglory (Ipomoea coccinea); conditions: for Plant response rating, Morningglory: scale 0 to 100, 0 no effect, 100 complete control
Method in brief: as §1

[17] = system: johnsongrass (Sorghum halepense); conditions: for Plant response rating, Johnsongrass: scale 0 to 100, 0 no effect, 100 complete control
Method in brief: as §1

[18] = system: wheat (winter wheat, Triticum aestivum); conditions: for Plant response rating, Wheat: scale 0 to 100, 0 no effect, 100 complete control
Method in brief: as §1

[19] = 31 g ai/ha, 0 is no effect, 100 is complete control

Cc1ccc(C2CN(C)C(=O)C2C(=O)Nc2ccccc2S(C)(=O)=O)cc1 (stereo not drawn) [Compound 663]
Plant response rating (scale of 0 to 100), Barnyardgrass [1, 19]: 95
Plant response rating, Barnyardgrass ([1]; 62 g ai/ha): 90
Plant response rating, Barnyardgrass ([1]; 125 g ai/ha): 98
Plant response rating, Barnyardgrass ([1]; 250 g ai/ha): 100
Plant response rating (scale of 0 to 100), Soybean [2, 19]: 0
Plant response rating, Soybean ([2]; 62 g ai/ha): 10
Plant response rating, Soybean ([2]; 125 g ai/ha): 0
Plant response rating, Soybean ([2]; 250 g ai/ha): 0
Plant response rating (scale of 0 to 100), Corn [3, 19]: 0
Plant response rating, Corn ([3]; 62 g ai/ha): 10
Plant response rating, Corn ([3]; 125 g ai/ha): 20
Plant response rating, Corn ([3]; 250 g ai/ha): 60
Plant response rating (scale of 0 to 100), Velvetleaf [4, 19]: 5
Plant response rating, Velvetleaf ([4]; 62 g ai/ha): 15
Plant response rating, Velvetleaf ([4]; 125 g ai/ha): 30
Plant response rating, Velvetleaf ([4]; 250 g ai/ha): 55
Plant response rating (scale of 0 to 100), Ragweed [5, 19]: 50
Plant response rating, Ragweed ([5]; 62 g ai/ha): 55
Plant response rating, Ragweed ([5]; 125 g ai/ha): 70
Plant response rating, Ragweed ([5]; 250 g ai/ha): 85
Plant response rating (scale of 0 to 100), Crabgrass, Large [6, 19]: 95
Plant response rating, Crabgrass, Large ([6]; 62 g ai/ha): 98
Plant response rating, Crabgrass, Large ([6]; 125 g ai/ha): 100
Plant response rating, Crabgrass, Large ([6]; 250 g ai/ha): 100
Plant response rating (scale of 0 to 100), Blackgrass [7, 19]: 20
Plant response rating, Blackgrass ([7]; 62 g ai/ha): 60
Plant response rating, Blackgrass ([7]; 125 g ai/ha): 85
Plant response rating, Blackgrass ([7]; 250 g ai/ha): 95
Plant response rating (scale of 0 to 100), Pigweed [8, 19]: 70
Plant response rating, Pigweed ([8]; 62 g ai/ha): 60
Plant response rating, Pigweed ([8]; 125 g ai/ha): 70
Plant response rating, Pigweed ([8]; 250 g ai/ha): 75
Plant response rating (scale of 0 to 100), Oilseed Rape [9, 19]: 30
Plant response rating, Oilseed Rape ([9]; 62 g ai/ha): 20
Plant response rating, Oilseed Rape ([9]; 125 g ai/ha): 65
Plant response rating, Oilseed Rape ([9]; 250 g ai/ha): 80
Plant response rating (scale of 0 to 100), Galium [10, 19]: 90
Plant response rating, Galium ([10]; 62 g ai/ha): 90
Plant response rating, Galium ([10]; 125 g ai/ha): 85
Plant response rating, Galium ([10]; 250 g ai/ha): 90
Plant response rating (scale of 0 to 100), Ryegrass, Italian [11, 19]: 10
Plant response rating, Ryegrass, Italian ([11]; 62 g ai/ha): 70
Plant response rating, Ryegrass, Italian ([11]; 125 g ai/ha): 50
Plant response rating, Ryegrass, Italian ([11]; 250 g ai/ha): 75
Plant response rating (scale of 0 to 100), Lambsquarters [12, 19]: 70
Plant response rating, Lambsquarters ([12]; 62 g ai/ha): 60
Plant response rating, Lambsquarters ([12]; 125 g ai/ha): 65
Plant response rating, Lambsquarters ([12]; 250 g ai/ha): 85
Plant response rating (scale of 0 to 100), Nutsedge, Yellow [13, 19]: 0
Plant response rating, Nutsedge, Yellow ([13]; 62 g ai/ha): 0
Plant response rating, Nutsedge, Yellow ([13]; 125 g ai/ha): 0
Plant response rating, Nutsedge, Yellow ([13]; 250 g ai/ha): 50
Plant response rating (scale of 0 to 100), Foxtail, Giant [14, 19]: 95
Plant response rating, Foxtail, Giant ([14]; 62 g ai/ha): 95
Plant response rating, Foxtail, Giant ([14]; 125 g ai/ha): 98
Plant response rating, Foxtail, Giant ([14]; 250 g ai/ha): 100
Plant response rating (scale of 0 to 100), Waterhemp [15, 19]: 50
Plant response rating, Waterhemp ([15]; 62 g ai/ha): 60
Plant response rating, Waterhemp ([15]; 125 g ai/ha): 85
Plant response rating, Waterhemp ([15]; 250 g ai/ha): 90
Plant response rating (scale of 0 to 100), Morningglory [16, 19]: 0
Plant response rating, Morningglory ([16]; 62 g ai/ha): 35
Plant response rating, Morningglory ([16]; 125 g ai/ha): 30
Plant response rating, Morningglory ([16]; 250 g ai/ha): 40
Plant response rating (scale of 0 to 100), Johnsongrass [17, 19]: 0
Plant response rating, Johnsongrass ([17]; 62 g ai/ha): 10
Plant response rating, Johnsongrass ([17]; 125 g ai/ha): 20
Plant response rating, Johnsongrass ([17]; 250 g ai/ha): 40
Plant response rating (scale of 0 to 100), Wheat [18, 19]: 0
Plant response rating, Wheat ([18]; 62 g ai/ha): 50
Plant response rating, Wheat ([18]; 125 g ai/ha): 55
Plant response rating, Wheat ([18]; 250 g ai/ha): 90
